In one test the test system is Staphylococcus aureus. Conditions: filter paper disc, chemicals isolated from Danshen; cited from earlier work.
Test [1] relates to clinical isolates of MRSA (T3, 102, MRSA 99). Type of test: cell-based, Staphylococcus aureus. Conditions: sub-inhibitory sub-culture, 3 week test period.
Procedure: This experiment was conducted to test for the rapid development of resistance in Staphylococcus aureus in the presence of sub-inhibitory doses of the active extract.
All clinical strains were from The Royal London, St Bartholomew's or Newham hospitals in London. Each strain had been identified as an MRSA.
High concentrations of organisms (10^7cfu/ml^−1) were grown in sub-inhibitory concentrations 0, 2 and 8 mg l^−1 of the active extract.
Organisms were sub-cultured into fresh active extract media at day 4 and again at day 7. MICs were checked weekly using standard methods. Subcultures were carried out in triplicate.
The subject of the next test is MRSA 2. Description: MIC and MBC by microtitre well methods, PYN6 versus individual compounds (TEST 2). It counts as cell-based, Staphylococcus aureus. Conditions: for MIC: microtitre well, growth over 20 hrs, 490 nm; for MBC: subculture onto solid media after 20 hrs. On the procedure:
(§1) Minimum Inhibitory and Minimum Bactericidal activities (MIC and MBC) of PYN6 were determined for 2 strains of MRSA using standard microtitre well methods. MICs were determined by measuring growth over 20 hrs using spectroscopy at 490 nm. MBCs were determined by subculture from these microtitre plates onto solid media after 20 hrs and determining survival of bacteria grown in the presence of PYN6.
TEST 2 MIC and MBC comparing PYN6 to A, B, C and D against MRSA 2

The test system of a further test is MRSA 98. Description: MIC and MBC by microtitre well methods, PYN6 versus individual compounds (TEST 1). Type of test: cell-based, Staphylococcus aureus. The protocol: as §1
TEST 1 MIC and MBC comparing PYN6 to A, B, C and D against MRSA 98

Test [2] deals with Staphylococcus aureus ATCC225923. Conditions: dissolved in dimethylformamide (DMF); cited from earlier work.
A further test has as its system Haemolytic streptococcus. Conditions: dissolved in dimethylformamide (DMF); cited from earlier work.
The next test has as its system Escherichia coli. Conditions: dissolved in dimethylformamide (DMF); cited from earlier work.
The conditions of test [3]: dissolved in chloroform; cited from earlier work.
The subject of test [4] is Bacillus aeruginosus ATCC227853. Conditions: dissolved in dimethylformamide (DMF); cited from earlier work.
Setting [5] is: TEST 1, MRSA 98, microtitre well, growth over 20 hrs, 490 nm.
Where [6] appears, read: TEST 1, MRSA 98, subculture onto solid media after 20 hrs.
Where [7] appears, read: Staphylococcus aureus, read-out: MIC.
Where [8] appears, read: Staphylococcus aureus, read-out: MBC.
Where [9] appears, read: Staphylococcus aureus, MRSA, 20 h.

Converted amounts (≈) assume the structure as drawn. Where two headings read alike, the source gives them in different places. Bounds are passed on as bounds.

The term MIC denotes the smallest concentration in the dilution series that meets the test's criterion for growth inhibition. For orientation: MBC means the smallest concentration meeting the test's criterion for killing.

For the compound neotanshinone A, in the test with Staphylococcus aureus, the anti-Staphylococcus aureus activity entry is “did not show activity”.
For the compound neotanshinone B, the anti-Staphylococcus aureus activity entry in the test on Staphylococcus aureus is recorded as “did not show activity”.
As for Gentamicin, in test [1], the development of resistance result is listed as “no development of resistance”.
As for `Cc1cccc2c3c(ccc12)C1=C(C(=O)C3=O)[C@@H](C)CO1` [C, Dyhydrotashinone], the anti-Staphylococcus aureus activity entry with Staphylococcus aureus is “demonstrated anti-Staphylococcus aureus activity”. Moreover, the MIC came out at 1.8 µg/mL (≈ 6.47 µM) against MRSA 2 and 8 µg/mL (≈ 28.7 µM) against MRSA 98 (setting [5]). For the same compound, the MBC was 62 µg/mL (≈ 223 µM) with MRSA 2 and 125 µg/mL (≈ 449 µM) against MRSA 98 (setting [6]).
As to `Cc1coc2c1C(=O)C(=O)c1c-2ccc2c(C)cccc12` [A, Tashinone 1], the anti-Staphylococcus aureus activity result in the test with Staphylococcus aureus is given as “did not show activity”. For the same compound, the MIC with MRSA 2 and against MRSA 98 (setting [5]) was 125 µg/mL (≈ 452 µM) throughout. The MBC with MRSA 2 is over 500 µg/mL; in the test with MRSA 98 (setting [6]), under 500 µg/mL.
On to `C[C@H]1COC2=C1C(=O)C(=O)c1c2ccc2c1CCCC2(C)C` [D, Cryptotashinone], for which the minimal inhibitory concentration (MIC) worked out at 7.7 µg/mL (≈ 26 µM) in the test with MRSA 2 (setting [7]) and 15 µg/mL (≈ 50.6 µM) in the test on MRSA 98 (setting [9]). The MBC stood at 125 µg/mL (≈ 422 µM) in the test with MRSA 2 (setting [8]) and 250 µg/mL (≈ 844 µM) against MRSA 98 (setting [9]).
As for `Cc1coc2c1C(=O)C(=O)c1c-2ccc2c1CCCC2(C)C` [B, Tashinone 11A], the MIC was 100 µg/mL (≈ 340 µM) in [2]; 121.5 µg/mL (≈ 413 µM) in the test with Haemolytic streptococcus; 125 µg/mL (≈ 425 µM) in the test with MRSA 2 (setting [7]); 125 µg/mL (≈ 425 µM) in the test on MRSA 98 (Staphylococcus aureus, TEST 1, MRSA 98, microtitre well, growth over 20 hrs, 490 nm, read-out: MIC); 50 µg/mL (≈ 170 µM) in [4]. Further, the anti-Staphylococcus aureus activity result with Staphylococcus aureus is recorded as “did not show activity”. In addition, the MBC was over 500 µg/mL in the test on MRSA 2 (setting [8]) and under 500 µg/mL in the test with MRSA 98 (Staphylococcus aureus, TEST 1, MRSA 98, subculture onto solid media after 20 hrs, read-out: MBC). Also, in the test on Escherichia coli, the “minimum inhibitory concentration (MIC)” value is 50 µg/mL (≈ 170 µM). The anti-microbial activity entry in test [3] was “did not demonstrate any anti-microbial activity”.
In the case of `Cc1coc2c1C(=O)C(=O)c1c-2ccc2c1CCCC2(C)CO` (stereo not drawn) [Tanshinone IIB], the MIC was 50 µg/mL (≈ 161 µM) in [2], 25 µg/mL (≈ 80.6 µM) in the test on Haemolytic streptococcus and 25 µg/mL (≈ 80.6 µM) in test [4]. The anti-Staphylococcus aureus activity result in the test on Staphylococcus aureus was “demonstrated anti-Staphylococcus aureus activity”. For the same compound, the “minimum inhibitory concentration (MIC)” value with Escherichia coli was 25 µg/mL (≈ 80.6 µM).
For the compound neotanshinone C, the anti-Staphylococcus aureus activity entry with Staphylococcus aureus is “did not show activity”.

The values above are taken from patent US9283256B2, “Antibacterial composition comprising Salvia extracts” (Botanic Century (Beijing) Co. Ltd., priority 2007, dated 2016).
